Test results reported in patent US10271552B2, “Heterocyclic compounds as pesticides” (Bayer CropScience Aktiengesellschaft, priority 2015, dated 2019).

Experiments:
Assay type in all cases: in vivo
Nezara viridula = Nezara viridula spray test (solvent 52.5 acetone / 7 dimethylformamide); details: 96 h, barley plants, larvae, after 4 days
Description: Nezara viridula—Spray Test
(§1) Solvent: 52.5 parts by weight of acetone • 7 parts by weight of dimethylformamide
(§2) Emulsifier: alkylaryl polyglycolether
(§3) To produce a suitable preparation of active compound, 1 part by weight of active compound is mixed with the stated amount of solvent, and the concentrate is diluted with water, containing an emulsifier concentration of 1000 ppm, to the desired concentration. Ammonium salt and/or penetration enhancer in a dosage of 1000 ppm are added to the desired concentration if necessary.
Barley plants (Hordeum vulgare) infested with larvae of the southern green stink bug (Nezara viridula) are sprayed with a test solution containing the desired concentration of the active ingredient.
After 4 days mortality in % is determined. 100% means all the stink bugs have been killed; 0% means none of the stink bugs have been killed.

Nilaparvata lugens = Nilaparvata lugens spray test (solvent 52.5 acetone / 7 dimethylformamide); details: 96 h, rice plants, larvae, after 4 days
Description: Nilaparvata lugens—Spray Test
as §1, §2
as §3, with “solvents” for “solvent,”, “and” for “and the concentrate”, “concentration. Further test concentrations are prepared by dilution with emulsifier containing water.” for “concentration.”
Rice plants (Oryza sativa) are treated by being sprayed with the desired concentration of the active compound and are infested with larvae of the brown planthopper (Nilaparvata lugens).
After 4 days mortality in % is determined. 100% means all planthoppers have been killed and 0% means none of the planthoppers have been killed.

Myzus persicae = Myzus persicae spray test; details: foliar, Chinese cabbage leaf disks, all instars, after 5-6 days
Description: Myzus persicae—Spray Test
(§4) Solvent: 78.0 parts by weight acetone • 1.5 parts by weight dimethylformamide
(§5) Emulsifier: alkylarylpolyglycol ether
(§6) To produce a suitable preparation of active compound, 1 part by weight of active compound is mixed with the stated amount of solvents and is diluted with water, containing an emulsifier concentration of 1000 ppm, to the desired concentration. Further test concentrations are prepared by dilution with emulsifier containing water.
Chinese cabbage (Brassica pekinensis) leaf disks infected with all instars of the green peach aphid (Myzus persicae), are sprayed with a preparation of the active ingredient of the desired concentration.
After 5-6 days mortality in % is determined. 100% means all aphids have been killed and 0% means none of the aphids have been killed.

Phaedon cochleariae = Phaedon cochleariae spray test; details: foliar, 168 h, Chinese cabbage leaf disks, larvae, after 7 days
Description: Phaedon cochleariae—Spray Test
(§7) Solvent: 78.0 parts by weight of acetone • • 1.5 parts by weight of dimethylformamide
as §5, §6
Chinese cabbage (Brassica pekinensis) leaf disks are sprayed with a preparation of the active ingredient of the desired concentration. Once dry, the leaf disks are infested with mustard beetle larvae (Phaedon cochleariae).
After 7 days mortality in % is determined. 100% means all beetle larvae have been killed and 0% means none of the beetle larvae have been killed.

Boophilus microplus = Boophilus microplus injection test; details: 20 μg/animal injected; adult engorged female ticks; after 7 days
Description: Boophilus microplus—Injection Test
(§8) Solvent: dimethyl sulfoxide
To produce a suitable preparation of active compound, 10 mg of active compound are dissolved in 0.5 ml solvent, and the concentrate is diluted with solvent to the desired concentration.
Five adult engorged female ticks (Boophilus microplus) are injected with 1 μl compound solution into the abdomen. The ticks are transferred into replica plates and incubated in a climate chamber.
After 7 days egg deposition of fertile eggs is monitored. Eggs where fertility is not visible are stored in a climate chamber till hatching after about 42 days. An efficacy of 100% means all eggs are infertile; 0% means all eggs are fertile.

Diabrotica balteata = Diabrotica balteata spray test; details: 160 μg/well; germinated wheat seeds, larvae; after 7 days
Description: Diabrotica Balteata—Spray Test
as §7, §5
as §6, with “solvent,” for “solvents”, “and the concentrate” for “and”
Soaked wheat seeds (Triticum aestivum) are placed in a multiple well plate filled with agar and some water and are incubated for 1 day to germinate (5 seeds per well). The germinated wheat seeds are sprayed with a test solution containing the desired concentration of the active ingredient. Afterwards each unit is infected with 10-20 larvae of the banded cucumber beetle (Diabrotica balteata).
After 7 days efficacy in % is determined. 100% means all the seedlings have grown up like in the untreated, uninfected control; 0% means none of the seedlings have grown.

Musca domestica = Musca domestica test; details: 100 ppm; adult house flies; after 2 days
Description: as §8
To produce a suitable preparation of active compound, 10 mg of active compound are dissolved in 0.5 ml solvent, and the concentrate is diluted with water to the desired concentration.
10 adult house flies (Musca domestica) are transferred into a container, containing a sponge soaked with a mixture of sugar solution and compound solution of the desired concentration.
After 2 days mortality in % is determined. 100% means all the flies have been killed; 0% means none of the flies have been killed.

Plutella xylostella = Plutella xylostella spray test; details: 100 ppm; cabbage leaves, larvae; after 7 days
Description: Plutella xylostella—Spray Test
Solvent: 14 parts by weight of dimethylformamide
Emulsifier: alkylaryl polyglycol ether
as §6, with “solvent” for “solvents”
Cabbage leaves (Brassica oleracea) are treated by being sprayed with the preparation of the active compound of the desired concentration and are infested with larvae of the diamondback moth (Plutella xylostella).
After 7 days, mortality in % is determined. 100% means all the caterpillars have been killed and 0% means none of the caterpillars have been killed.

Meloidogyne incognita = Meloidogyne incognita test; details: 20 ppm; eggs and larvae, salad seeds in sand; after 14 days
Description: Meloidogyne incognita—Test
Solvent: 125.0 parts by weight of acetone
To produce a suitable preparation of active compound, 1 part by weight of active compound is mixed with the stated amount of solvent, and the concentrate is diluted with water to the desired concentration.
Vessels are filled with sand, a solution of the active ingredient, a suspension containing eggs and larvae of the southern root-knot nematode (Meloidogyne incognita) and salad seeds. The salad seeds germinate and the seedlings grow. Galls develop in the roots.
After 14 days the nematicidal activity is determined on the basis of the percentage of gall formation. 100% means no galls were found and 0% means the number of galls found on the roots of the treated plants was equal to that in untreated control plants.

Tetranychus urticae = Tetranychus urticae spray test OP-resistant; details: foliar, 144 h, French bean leaf disks, all instars, after 6 days
Description: Tetranychus urticae—Spray Test OP-Resistant
as §4, §5, §6
French bean (Phaseolus vulgaris) leaf disks infected with all instars of the two spotted spidermite (Tetranychus urticae), are sprayed with a preparation of the active ingredient of the desired concentration.
After 6 days mortality in % is determined. 100% means all spider mites have been killed and 0% means none of the spider mites have been killed.

Ctenocephalides felis [1] = assay: Ctenocephalides felis in-vitro contact test, adult cat flea; details: 5 μg/cm^2 (=500 g/ha), after 48 hours
Description: Ctenocephalides felis—In-Vitro Contact Tests Adult Cat Flea
9 mg compound is solved in 1 ml acetone and diluted with acetone to the desired concentration. 250 μl of the test solution is filled in 25 ml glass test tubes and homogeneously distributed on the inner walls by rotation and tilting on a shaking device (2 h at 30 rpm). With a compound concentration of 900 ppm, an inner surface of 44.7 cm^2 and a homogeneous distribution, a dose of 5 μg/cm^2 is achieved.
After the solvent has evaporated, each test tube is filled with 5-10 adult cat fleas (Ctenocephalides felis), closed with a perforated lid and incubated in a lying position at room temperature and relative humidity. After 48 hours efficacy is determined. The fleas are patted on the ground of the tubes and are incubated on a heating plate at 45-50° C. for at most 5 minutes. Immotile or uncoordinated moving fleas, which are not able to escape the heat by climbing upwards, are marked as dead or moribund.
An efficacy of 100% means all fleas are dead or moribund; 0% means no fleas are dead or moribund.

Ctenocephalides felis [2] = assay: whole plant or invertebrate; details: po, 48 h
Description: Ctenocephalides felis—Oral Test
as §8
To produce a suitable preparation of active compound, 10 mg of active compound are dissolved in 0.5 ml solvent, and the concentrate is diluted with cattle blood to the desired concentration.
Approximately 20 adult unfed cat fleas (Ctenocephalides felis) are placed in flea chambers. The blood chamber, sealed with parafilm on the bottom, are filled with cattle blood supplied with compound solution and placed on the gauze covered top of the flea chamber, so that the fleas are able to suck the blood. The blood chamber is heated to 37° C. whereas the flea chamber is kept at room temperature.
After 2 days mortality in % is determined. 100% means all the fleas have been killed; 0% means none of the fleas have been killed.

Lucilia cuprina = assay: whole plant or invertebrate; details: 48 h
Description: as §8
10 mg active compound are dissolved in 0.5 ml Dimethylsulfoxid. Serial dilutions are made to obtain the desired rates.
Approximately 20 1st instar larvae of the Australian sheep blowfly (Lucilia cuprina) are transferred into a test tube containing minced horse meat and compound solution of the desired concentration.
After 2 days mortality in % is determined. 100% means all the larvae have been killed; 0% means none of the larvae have been killed.

Haemonchus contortus = Haemonchus contortus test; details: for larval mortality (efficacy): 20 ppm, larvae, after 5 days
Description: Haemonchus contortus—Test
as §8
To produce a suitable preparation of active compound, 10 mg of active compound are dissolved in 0.5 ml solvent, and the concentrate is diluted with “Ringer's solution” to the desired concentration.
Approximately 40 larvae of the red stomach worm (Haemonchus contortus) are transferred into a test tube containing compound solution.
After 5 days the percentage of larval mortality is recorded. 100% efficacy means all larvae are killed, 0% efficacy means no larvae are killed.

Which results are given for `O=C(Nc1nc(-c2c(C(F)(F)F)cccc2C(F)(F)F)ns1)c1cccnc1C(F)(F)F` [Compound I-1-65, N-{3-[2,6-Bis(trifluoromethyl)phenyl]-1,2,4-thiadiazol-5-yl}-2-(trifluoromethyl)nicotinamide]?
mortality at 500 g/ha (Nezara viridula): ≥ 90%; mortality at 500 g/ha (Nilaparvata lugens): ≥ 80%

Which results are given for `O=C(Nc1nc(-c2ncc(C(F)(F)F)cc2Cl)ns1)c1cccnc1C(F)(F)F` [Compound I-2-3, N-{3-[3-Chloro-5-(trifluoromethyl)pyridin-2-yl]-1,2,4-thiadiazol-5-yl}-2-(trifluoromethyl)nicotinamide]?
mortality at 500 g/ha (Myzus persicae): ≥ 70%; mortality at 500 g/ha (Phaedon cochleariae): ≥ 80%

Which results are given for `O=C(Nc1nc(-c2ccccc2F)ns1)c1cccnc1C(F)(F)F` [Compound I-1-57]?
efficacy (infertile eggs) (Boophilus microplus): 100%; efficacy (seedling growth) (Diabrotica balteata): 100%; mortality (Musca domestica): 100%

What does the source list for `O=C(Nc1nc(-c2c(F)cccc2F)ns1)c1ccccc1[N+](=O)[O-]` [Compound I-1-10]?
mortality (Plutella xylostella): 100%; nematicidal activity (gall formation) (Meloidogyne incognita): 100%

Which results are given for `O=C(Nc1nc(-c2ncccc2Cl)ns1)c1ccccc1Cl` [Compound I-2-6, 2-Chloro-N-[3-(3-chloropyridin-2-yl)-1,2,4-thiadiazol-5-yl]benzamide]?
mortality at 500 g/ha (Phaedon cochleariae): ≥ 80%; mortality at 500 g/ha (Tetranychus urticae): ≥ 70%; mortality at 500 g/ha (Nilaparvata lugens): ≥ 80%

`O=C(Nc1nc(-c2c(F)cccc2F)ns1)c1cccnc1C(F)(F)F` [Compound I-1-6, N-[3-(2,6-difluorophenyl)-1,2,4-thiadiazol-5-yl]-2-(trifluoromethyl)nicotinamide] was tested. Which “efficacy (infertile eggs)” value (Boophilus microplus) did it give?
The value was 100%.

And the mortality at 500 g/ha (Myzus persicae)?
Its mortality at 500 g/ha is at least 70%.

And the “efficacy (fleas dead or moribund)” value (Ctenocephalides felis [1])?
The value was 100%.

And the “efficacy (seedling growth)” value (Diabrotica balteata)?
Its value is 80%.

What about the mortality at 100 ppm (Ctenocephalides felis [2]) of the same compound?
Its mortality at 100 ppm is 100%.

What about the mortality at 100 ppm (Lucilia cuprina) of the same compound?
Its mortality at 100 ppm is 100%.

What about the “nematicidal activity (gall formation)” value (Meloidogyne incognita) of the same compound?
Its value is 100%.

What about the mortality at 500 g/ha (Nilaparvata lugens) of the same compound?
The mortality at 500 g/ha was at least 80%.

With `O=C(Nc1nc(-c2c(F)cccc2F)ns1)c1c(F)cccc1C(F)(F)F` [Compound I-1-12] as the compound, how does the “efficacy (infertile eggs)” value (Boophilus microplus) read?
The value was 100%.

And the mortality (Plutella xylostella)?
Its mortality is 100%.

And the “nematicidal activity (gall formation)” value (Meloidogyne incognita)?
Its value is 100%.

Which results are given for `O=C(Nc1nc(-c2c(F)cccc2F)ns1)c1c(F)cccc1F` [Compound I-1-1, N-[3-(2,6-difluorophenyl)-1,2,4-thiadiazol-5-yl]-2,6-difluorobenzamide]?
efficacy (infertile eggs) (Boophilus microplus): 100%; mortality at 500 g/ha (Phaedon cochleariae): ≥ 80%; mortality at 500 g/ha (Tetranychus urticae): ≥ 70%; mortality at 500 g/ha (Nezara viridula): ≥ 90%; mortality at 100 ppm (Ctenocephalides felis [2]): 95%; mortality at 20 ppm (Haemonchus contortus; Haemonchus contortus, 120 h, read-out: larval mortality (efficacy)): 80%; nematicidal activity (gall formation) (Meloidogyne incognita): 90%

For `O=C(Nc1nc(-c2c(F)cccc2F)ns1)c1ccccc1F` [Compound I-1-2], which “larval mortality (efficacy)” value (Haemonchus contortus) is on record?
The value was 100%.

What about the “nematicidal activity (gall formation)” value (Meloidogyne incognita) of the same compound?
The value was 100%.

Which results are given for `O=C(Nc1nc(-c2c(F)cccc2F)ns1)c1cccc(F)c1C(F)(F)F` [Compound I-1-11]?
efficacy (infertile eggs) (Boophilus microplus): 100%; mortality (Plutella xylostella): 100%

For `O=C(Nc1nc(-c2ccc(F)cc2F)ns1)c1cccnc1C(F)(F)F` [Compound I-1-56], which “larval mortality (efficacy)” value (Haemonchus contortus) is on record?
The value was 80%.

With `O=C(Nc1nc(-c2c(F)cccc2F)ns1)c1ccccc1Br` [Compound I-1-5, 2-Bromo-N-[3-(2,6-difluorophenyl)-1,2,4-thiadiazol-5-yl]benzamide] as the compound, how does the “efficacy (infertile eggs)” value (Boophilus microplus) read?
The value was 100%.

And the mortality at 500 g/ha (Phaedon cochleariae)?
Its mortality at 500 g/ha is at least 80%.

What about the mortality at 500 g/ha (Tetranychus urticae) of the same compound?
Its mortality at 500 g/ha is at least 70%.

And the mortality at 100 ppm (Lucilia cuprina)?
Its mortality at 100 ppm is 70 to 100%.

What about the “nematicidal activity (gall formation)” value (Meloidogyne incognita) of the same compound?
Its value is 90%.
